In the supplement of paper PMC10307832:

Assays:
Experiment in all cases: relative viability (nuclei count vs DMSO), 5 days (fraction); higher = more cells survive
QS11 + Palbociclib = compound: C1CC2=C(C1)C=C(C=C2)OC3=NC(=C4C(=N3)N(C=N4)CC5=CC=C(C=C5)C6=CC=CC=C6)N[C@@H](CC7=CC=CC=C7)CO [QS11] + CC(=O)c1c(C)c2cnc(Nc3ccc(N4CCNCC4)cn3)nc2n(C2CCCC2)c1=O [Palbociclib] (partner 0.5 µM)
In short: (§1)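 Lung cancer cell lines in 1536-well plates got either a single drug or a fixed anchor-drug dose together with five library-drug doses (not always all listed) in √10 steps, by pin tool, on the day after seeding. Nuclei were counted after 5 days, and relative viability is the treated-to-vehicle ratio of nuclei counts. Values are medians of duplicate plates.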

QS11 + Olaparib = compound: C1CC2=C(C1)C=C(C=C2)OC3=NC(=C4C(=N3)N(C=N4)CC5=CC=C(C=C5)C6=CC=CC=C6)N[C@@H](CC7=CC=CC=C7)CO [QS11] + O=C(c1cc(Cc2n[nH]c(=O)c3ccccc23)ccc1F)N1CCN(C(=O)C2CC2)CC1 [Olaparib] (partner 8 µM)
In short: as §1

[1] = compound: C[As](C)SC[C@H](NC(=O)CC[C@H](N)C(=O)O)C(=O)NCC(=O)O [Darinaparsin] + CC1(C)CCC(c2ccc(Cl)cc2)=C(CN2CCN(c3ccc(C(=O)NS(=O)(=O)c4ccc(N[C@H](CCN5CCOCC5)CSc5ccccc5)c(S(=O)(=O)C(F)(F)F)c4)cc3)CC2)C1 [Navitoclax] (partner 0.5 µM)
In short: as §1

Darinaparsin + AZD7762 = compound: C[As](C)SC[C@H](NC(=O)CC[C@H](N)C(=O)O)C(=O)NCC(=O)O [Darinaparsin] + NC(=O)Nc1cc(-c2cccc(F)c2)sc1C(=O)N[C@H]1CCCNC1 [AZD7762] (partner 0.2 µM)
In short: as §1

Cell Line	relative viability (QS11 + Palbociclib; first compound 0.08 µM)	relative viability (QS11 + Palbociclib; first compound 0.253 µM)	relative viability (QS11 + Palbociclib; first compound 0.8 µM)	relative viability (QS11 + Palbociclib; first compound 2.53 µM)	relative viability (QS11 + Palbociclib; first compound 8 µM)	relative viability (QS11 + Olaparib; first compound 0.08 µM)	relative viability (QS11 + Olaparib; first compound 0.253 µM)	relative viability (QS11 + Olaparib; first compound 0.8 µM)	relative viability (QS11 + Olaparib; first compound 2.53 µM)	relative viability (QS11 + Olaparib; first compound 8 µM)	relative viability ([1]; first compound 0.08 µM)	relative viability ([1]; first compound 0.8 µM)	relative viability ([1]; first compound 2.53 µM)	relative viability ([1]; first compound 8 µM)	relative viability (Darinaparsin + AZD7762; first compound 0.08 µM)	relative viability (Darinaparsin + AZD7762; first compound 0.8 µM)	relative viability (Darinaparsin + AZD7762; first compound 2.53 µM)	relative viability (Darinaparsin + AZD7762; first compound 8 µM)
NCI-H1975	0.555	0.531	0.58	0.74	0.733	0.814	0.891	0.814	1.07	0.688	1.26	1.15	1.11	1.45	0.751	0.684	0.662	0.741
BEN	0.479	0.481	0.501	0.52	0.502	0.667	1.1	1.03	1.01	0.992	0.0561	0.0673	0.0517	0.0548	0.691	0.729	0.648	0.797
NCI-H1437	0.299	0.351	0.239	0.287	0.239	0.661	0.635	0.673	0.625	0.541	1.54	1.1	0.962	1.33	1.2	1.2	1.03	1.26
NCI-H1734	0.374	0.389	0.31	0.32	0.324	0.625	0.649	0.608	0.587	0.507	1.07	0.947	0.806	1.11	0.72	0.529	0.549	0.664
NCI-H596	–	–	–	–	–	0.724	0.563	0.634	0.606	0.61	1.3	1.11	0.83	1.23	1.23	1.13	0.98	1.25
LOU-NH91	0.527	0.536	0.513	0.58	0.629	0.893	0.9	0.876	0.937	0.998	0.699	0.701	0.642	0.604	0.808	0.745	0.719	0.775
NCI-H2342	0.52	0.541	0.515	0.474	0.491	0.352	0.395	0.494	0.479	0.441	–	–	–	–	0.642	0.463	0.418	0.498
NCI-H522	0.766	0.841	0.987	1.15	1.19	0.603	0.755	0.665	0.588	0.772	–	–	–	–	0.764	0.895	0.809	0.883
SK-MES-1	0.322	0.285	0.268	0.311	0.295	0.672	0.677	0.717	0.75	0.804	1.33	1.18	1.17	1.54	–	–	–	–
UMC-11	0.307	0.343	0.378	0.343	0.337	0.324	0.41	0.268	0.329	0.395	0.339	0.313	0.305	0.311	–	–	–	–
LK-2	0.723	0.826	0.777	0.507	0.705	0.569	0.764	1.03	0.734	0.856	0.968	0.709	0.746	1.07	0.482	–	0.335	0.581
CAL-12T	0.431	0.568	0.409	0.499	0.264	0.722	0.693	0.67	0.727	0.603	1.48	1.11	1.27	1.37	0.773	0.541	0.694	0.648
PC-3 [JPC-3]	–	0.586	0.396	0.595	0.575	–	1.17	1.15	1.24	1.22	0.832	0.748	0.767	0.825	0.972	0.807	0.668	0.85
NCI-H1651	0.542	0.53	0.4	0.48	0.581	0.168	0.202	0.171	0.195	0.162	1.11	1.01	0.863	0.999	0.507	0.43	0.361	0.553
NCI-H650	0.328	0.34	0.304	0.286	0.327	0.316	0.364	0.375	0.316	0.418	–	–	–	–	0.94	0.882	0.941	0.95
HOP-62	0.471	0.517	0.455	0.369	0.281	0.477	0.46	0.31	0.319	0.382	1.39	1.2	0.963	1.13	0.669	0.518	0.497	0.782
